According to patent US20070148703A1, “Method of screening remedy for breast cancer” (Genomembrane, Inc., priority 2003, published 2007):
Several values for one entry are separate records, joined by “and”; a condition that tells them apart may be missing. Equal values may be shown once.

Assays:
Format in all cases: cell-based, human
T-47D cells [1] = experiment: Inhibition of [3H] estrone-3-sulfate uptake by T-47D cells
Procedure: The cell suspension and a solution containing a radiolabeled test compound in the transport medium were separately incubated at 37° C. for 20 min, then transport was initiated by mixing them. […] Each cell pellet was solubilized in 3 N KOH, and neutralized with HCl. Then, the associated radioactivity was measured by means of a liquid scintillation counter using Clearsol-1 (Nacalai tesque) as a liquid scintillation fluid.
To characterize the substrate specificity of the transport system, the inhibitory effects of hormones, their conjugated metabolites, and various organic compounds on [^3H] estrone-3-sulfate uptake by T-47D cells were examined. The results are shown in (Table 1). In Table 1, values in control (%) are indicated as the ratio in comparison to uptake amount of estrone-3-sulfate in control which was set at 100%. Each value represents the mean±S.E.M. (n=4), and *P<0.05 indicates comparison to control (Student's test).

MCF-7 cells = experiment: MCF-7 cell proliferation with estrone-3-sulfate or estradiol, with or without BSP
Procedure: It was examined whether cell proliferation promoting effect on MCF-7 cells (ATCC-HTB22) by estrone-3-sulfate is inhibited by suppressing intracellular accumulation of estrone-3-sulfate. MCF-7 cells were seeded on a 96-well plate at a concentration of 8×10^4 cells/cm^2, and cultured for 1 day. Then, a medium containing estrone-3-sulfate (Sigma Chemicals) at various concentrations, ranging from 10 pM to 10 μM, and 100 μM of bromosulfophtalein (BSP: Sigma Chemicals), and a medium containing estradiol (Sigma Chemicals) at various concentrations, ranging from 1 pM to 10 nM, and 100 μM of BSP were added respectively, and culture was conducted for 3 more days. Subsequently, cell amount was measured.
However, this is considered to be estrogen activity by BSP itself or metabolite thereof. This effect decreased relatively with the increase of estrogen concentration. […] Accordingly, it is considered that the uptake of estrone-3-sulfate into the cells was inhibited by BSP, and that of estradiol, which is highly lipid-soluble, was not inhibited, and therefore there was no change in cell proliferation promoting effect.

T-47D cells [2] = experiment: T-47D cell proliferation assay
Procedure: (a) T-47D cells were seeded at a density of 8,000 cells/well and cultured. 24 hours after seeding (day 1), estradiol (1 pM, closed triangles), estrone-3-sulfate (100 nM, closed circles), DMSO (0.1, open triangles) or water (open circles) was added. After the designated number of days, T-47D cells were trypsinized and counted.
(b) T-47D cells were proliferated in the presence of various concentrations of estradiol (closed triangles) or estrone-3-sulfate (closed circles), ranging from 10^−16 to 10^−11 M, or from 10^−11 to 10^−6 M, respectively. The cell numbers were counted at day 6 after seeding. Each value represents the mean±S.E.M. (n=3).
T-47D cells were routinely proliferated in RPMI 1640 medium (Sigma Chemicals) containing phenol red and 10% FCS in a humidified incubator at 37° C. and 5% CO2. For the proliferation assay, FCS was incubated with 0.5% dextran-coated charcoal (DCC) at 4° C. overnight, then the medium was decanted and DCC was filtered off (0.2 μm) to remove steroid hormones. This procedure was repeated three times. Then T-47D cells were seeded into 96-well plates at a density of 8,000 cells/well in phenol red-free RPMI 1640 medium containing 2.5% DCC-treated FCS. […] At designated days after seeding, the cells were treated with trypsin, and cell numbers were counted.

T-47D cells [3] = experiment: Uptake of estrone-3-sulfate by T-47D cells (time course, cation and concentration dependence); conditions: 5.1 nM to 50 μM, 37° C., 10 min, saturable uptake; mean±S.E.M.
Procedure: Cultured T-47D cells were incubated at 37° C. over 35 min in medium containing [^3H] estrone-3-sulfate (7.1 nM) with (open circles) or without (closed circles) 1 mM unlabeled estrone-3-sulfate. Each value represents the mean±S.E.M. (n=4). When the error bars are not shown, they are smaller than the symbols.
The uptake rate of [^3H] estrone-3-sulfate (7.1 nM) for 10 min was measured in the presence or absence of extracellular Na^+. Extracellular Na^+ was replaced with K^+, Li^+, or N-methylglucamine^+ (NMG^+). Each value represents the mean±S.E.M. (n=4).
The uptake of estrone-3-sulfate at various concentrations, ranging from 5.1 nM to 50 μM, was measured at 37° C. for 10 min. […]
Transport experiments were performed as described previously (Tamai et al., 2001). […] Then, the associated radioactivity was measured by means of a liquid scintillation counter using Clearsol-1 (Nacalai tesque) as a liquid scintillation fluid.
(§1) Cellular protein content was determined according to the method of Bradford by using a BioRad protein assay kit (Hercules) with bovine serum albumin as the standard (Bradford, 1976). […] All data were expressed as means±S.E.M., and statistical analysis was performed by the use of Student's t test with P<0.05 as the criterion of significance. […]

T-47D cells [4] = experiment: Uptake of DHEAS by T-47D cells (time course, concentration dependence); conditions: 10.3 nM to 100 μM, 37° C., 10 min, saturable uptake
Procedure: The uptake of DHEAS at various concentrations, ranging from 10.3 nM to 100 μM, was measured at 37° C. for 10 min. The saturable uptake was obtained after subtraction of the uptake in the presence of excess of unlabeled DHEAS (5 mM) and used for the evaluation of kinetic constants by nonlinear least-squares analysis. […] Each value represents the mean±S.E.M. (n=4). When the error bars are not shown, they are smaller than the symbols.
Transport experiments were performed as described previously (Tamai et al., 2001). After cultivation of T-47D cells in 15 cm dishes, the cells were harvested and suspended in the transport medium containing 125 mM NaCl, 4.8 mM KCl, 5.6 mM D-glucose, 1.2 mM CaCl2, 1.2 mM KH2PO4, 1.2 mM MgSO4 and 25 mM Hepes, adjusted to pH 7.4. […] Then, the associated radioactivity was measured by means of a liquid scintillation counter using Clearsol-1 (Nacalai tesque) as a liquid scintillation fluid.
as §1

[5] = inhibitor 100 μM, mean±S.E.M. (n=4)
[6] = inhibitor 1000 μM, mean±S.E.M. (n=4)
[7] = inhibitor 5 μM, mean±S.E.M. (n=4)
[8] = inhibitor 50 μM, mean±S.E.M. (n=4)

Row | Molecule | [3H] estrone-3-sulfate uptake, Control (%) (T-47D cells [1]; [5]) | [3H] estrone-3-sulfate uptake, Control (%) (T-47D cells [1]; [6]) | [3H] estrone-3-sulfate uptake, Control (%) (T-47D cells [1]; [7]) | [3H] estrone-3-sulfate uptake, Control (%) (T-47D cells [1]; [8]) | inhibitory effect on [3H] estrone-3-sulfate uptake, in words (T-47D cells [1]; concentration not given) | further results
1 | C[C@H](CCC(=O)NCCS(=O)(=O)O)[C@H]1CC[C@H]2[C@@H]3[C@H](O)C[C@@H]4C[C@H](O)CC[C@]4(C)[C@H]3C[C@H](O)[C@]12C [Taurocholic acid] | 69.3 ± 2.7 * % | 24.1 ± 2.3 * % | – | – | – | [3H] estrone-3-sulfate uptake, Control (%) (T-47D cells [1]; inhibitor 100 μM, mean±S.E.M. (n=4), listed as taurocholic acid): 69.3%
2 | C[C@]12CC[C@H](O)CC1=CC[C@@H]1[C@@H]2CC[C@]2(C)C(=O)CC[C@@H]12 [Dehydroepiandrosterone] | – | – | 75.6 ± 3.8 * % | 44.8 ± 8.0 * % | – | –
3 | CC1(C)S[C@@H]2[C@H](NC(=O)Cc3ccccc3)C(=O)N2[C@H]1C(=O)O [Penicillin G] | 83.2 ± 2.0 * % | 75.9 ± 10.5% | – | – | slight inhibitory effects | –
4 | C[C@]12CC[C@@H]3c4ccc(OS(=O)(=O)O)cc4CC[C@H]3[C@@H]1CCC2=O [Estrone-3-sulfate] | – | – | 34.7 ± 4.3 * % | 6.6 ± 0.9 * % | – | [3H] estrone-3-sulfate uptake, Control (%) (T-47D cells [1]; inhibitor 5 μM, mean±S.E.M. (n=4), listed as estrone-3-sulfate): 34.7%; [3H] estrone-3-sulfate uptake, Control (%) (T-47D cells [1]; inhibitor 50 μM, mean±S.E.M. (n=4), listed as estrone-3-sulfate): 6.6%; cell proliferation promoting effect on MCF-7 cells (MCF-7 cells; estrogen only (positive control), 3 days): cell proliferation promoting effect was observed; proliferation of T-47D cells compared with solvent alone (T-47D cells [2]; 100 nM): stimulated; EC50 (T-47D cells [2]; 6 days after seeding, nonlinear regression analysis, read-out: median effective concentration (EC50), stimulation of T-47D proliferation): ~17.1 nM and 17.1 nM; Km (T-47D cells [3]): 3.9 ± 0.78 µM; Vmax of estrone-3-sulfate uptake (T-47D cells [3]): 576.3±32.9 pmol/mg protein/10 min
5 | C[C@]12CC[C@@H]3c4ccc(O)cc4CC[C@H]3[C@@H]1CCC2=O [Estrone] | – | – | 78.8 ± 3.3 * % | 64.8 ± 7.5 * % | – | –
6 | O=C(O)c1ccccc1O [Salicylate] | 94.9 ± 6.0% | 82.7 ± 7.3% | – | – | no effect | –
7 | C[C@H]1O[C@@H](O[C@H]2[C@@H](O)C[C@H](O[C@H]3[C@@H](O)C[C@H](O[C@H]4CC[C@@]5(C)[C@H](CC[C@@H]6[C@@H]5C[C@@H](O)[C@]5(C)[C@@H](C7=CC(=O)OC7)CC[C@]65O)C4)O[C@@H]3C)O[C@@H]2C)C[C@H](O)[C@@H]1O [Digoxin] | – | – | – | – | no effect | [3H] estrone-3-sulfate uptake, Control (%) (T-47D cells [1]; inhibitor 100 μM, DMSO 1%, vs Control (DMSO 1%)): 90.3 ± 3.5%; [3H] estrone-3-sulfate uptake, Control (%) (T-47D cells [1]; inhibitor 1000 μM, DMSO 1%, vs Control (DMSO 1%)): 94.8 ± 4.4%
8 | C[C@]12CC[C@@H]3c4ccc(O)cc4CC[C@H]3[C@@H]1CC[C@@H]2O [Estradiol] | – | – | 76.9 ± 4.8 * % | 45.7 ± 5.3 * % | – | –
9 | Dehydroepiandrosterone sulfate | – | – | 66.4 ± 5.7 * % | 27.0 ± 7.6 * % | – | Km (T-47D cells [4]): 62.5 ± 21.1 µM; Vmax of DHEAS uptake (T-47D cells [4]): 1893±315.7 pmol/mg protein/10 min; [3H] estrone-3-sulfate uptake, Control (%) (T-47D cells [1]; inhibitor 50 μM, mean±S.E.M. (n=4), listed as DHEAS): 44.8%
10 | O=C1OC(c2ccc(O)c(S(=O)(=O)O)c2)(c2ccc(O)c(S(=O)(=O)O)c2)c2c(Br)c(Br)c(Br)c(Br)c21 [Bromosulfophtalein] | 18.9 ± 2.8 * % | 14.2 ± 1.2 * % | – | – | – | [3H] estrone-3-sulfate uptake, Control (%) (T-47D cells [1]; inhibitor 100 μM, mean±S.E.M. (n=4), listed as bromosulfophthalein): 18.9%; cell proliferation of MCF-7 cells with 100 μM BSP (MCF-7 cells; 100 μM BSP added simultaneously, low estrone-3-sulfate concentration): cell proliferation promoting effect was observed; cell proliferation promoting effect by BSP (MCF-7 cells; 100 μM BSP plus 10 μM estrone-3-sulfate): inhibited; cell proliferation promoting effect by BSP (MCF-7 cells; 100 μM BSP plus estradiol): no change
11 | C[C@]12CC[C@@H]3c4ccc(O)cc4CC[C@H]3[C@@H]1CC[C@@H]2O[C@@H]1O[C@H](C(=O)O)[C@@H](O)[C@H](O)[C@H]1O [Estradiol-17β-glucuronide] | – | – | 73.8 ± 8.7% | 90.4 ± 11.5% | – | inhibitory effect on [3H] estrone-3-sulfate uptake, in words (T-47D cells [1]; 50 μM): no effect
12 | Nc1ccc(C(=O)NCC(=O)O)cc1 [p-Aminohippuric acid] | 87.8 ± 1.5% | 112.7 ± 18.6% | – | – | no effect | –
13 | CCCN(CCC)S(=O)(=O)c1ccc(C(=O)O)cc1 [Probenecid] | 103.2 ± 10.2% | 79.1 ± 3.8 * % | – | – | slight inhibitory effects | –
14 | CC[N+](CC)(CC)CC [Tetraethylammonium] | 87.4 ± 1.5 * % | 112.7 ± 18.6% | – | – | no effect | –
